Results taken from patent publication US9345677B2, “Compositions, methods and kits relating to HER-2 cleavage” (Incyte Corporation, priority 2003, dated 2016).

What was measured:
MMP12 = MMP12 (Homo sapiens, UniProt P39900); test: MMP12 fluorogenic peptide biochemical assay
Text: Source of enzymes for biochemical assays: Except for ADAM17 and MT1-MMP, all recombinant human MMPs and ADAMs were obtained from R&D Systems (Minneapolis, Minn.). […] MT1-MMP was obtained from US Biological (Swampscott, Mass.) with a catalog number of M2429. Porcine ADAM17 was purified in house from porcine spleen.
Substrates for biochemical assays: Fluorogenic Peptide substrate, (7-methoxycoumarin-4-yl)acetyl-Pro-Leu-Gly-Leu-(3-[2,4-dinitrophenyl]-L-2,3-diaminopropionyl)-Ala-Arg-NH2 (SEQ ID NO: 46), was obtained from R&D Systems (Minneapolis, Minn.) with a catalog number of ES001. It was used as substrate for MMP1, MMP2, MMP7, MMP8, MMP9, MMP12, MMP13, and MT1-MMP. Fluorogenic Peptide substrate, (7-methoxycoumarin-4-yl)acetyl-Arg-Pro-Lys-Pro-Val-Glu-Nva-Trp-Arg-Lys(2,4-dinitrophenyl)-NH2 (SEQ ID NO: 47), was obtained from R&D Systems with a catalog number of ES002. It was used as substrate for MMP3 and MMP10. […]
In general, 5 mM compound stock was prepared in DMSO. […] The plate was read on a plate reader with excitation of 320 nm and emission of 405 nm. Percentage of inhibition was calculated for each concentration and IC50 value was generated from curve fitting. […]

MCF7 cells = test: Cell proliferation assay (cell counting, BrdU incorporation); format: cell-based, human; conditions: MCF7 cells which do not overexpress Her-2
Protocol: (§1) Proliferation assays were routinely performed with two protocols: cell counting and BrdU incorporation assay. For cell counting, cells (1×10^5) were seeded in each well of 12 well plates and cultured overnight. Then, cells were treated for 6 days with drugs and compounds as indicated in individual experiments. Culture media were replaced with fresh media containing the same concentrations of drugs and compounds after the first 3 days of treatment. Viable cells were counted with hemacytometers immediately after trypan blue staining.
The BrdU incorporation assay was performed using a colorimetric Cell Proliferation ELISA kit per manufacturer's instruction (#1647229, Roche Molecular Biochemicals), measuring DNA synthesis in proliferating cells. Briefly, cells (5−10×10^3) were seeded in each well of 96 well plates and cultured overnight. The next day, culture media were replaced with fresh media containing drugs and compounds as indicated for individual experiments. […] Finally, 100 μl/well of substrate solution was added and the results were obtained using a microplate reader (Spectra Max PLUS, Molecular Devices) during color development. Multiple readings at various time points were obtained and results in the linear range of the assay were obtained. […]

Her-2 sheddase = test: Her-2 ECD ELISA of BT474 culture supernatants (Her-2 sheddase inhibition); format: cell-based, human
Protocol: BT474 cells were seeded in 100 μL of RPMI medium containing 10% FCS+10 μg/ml insulin in 96 well plates at 2×10^4 cells/well. The cells were incubated overnight at 37° C. The following morning, the media was removed and 100 μL of fresh media with or without compound was added back. The cells were incubated for about 72 hours at 37° C. After about 72 hours, the supernatants were removed. The samples were diluted 1:10 and analyzed using a commercially available Her-2 ELISA kit per manufacturer's instructions (Oncogene Research, catalog #QIA 10).
These inhibitors were added, at varying concentrations, to cultures of BT474 cells, a Her-2 overexpressing breast cancer cell line known to enzymatically process cell surface Her-2 (p185) and release the extracellular domain (ECD) into the culture supernatant, i.e., shedding of ECD. After 72 hours, cell culture supernatants were harvested and assayed for Her-2 ECD content using an ELISA assay.

BT474 cells = test: Cell proliferation assay (cell counting, BrdU incorporation); format: cell-based, human; conditions: Her-2 overexpressing BT474 cells
Protocol: as §1
The BrdU incorporation assay was performed using a colorimetric Cell Proliferation ELISA kit per manufacturer's instruction (#1647229, Roche Molecular Biochemicals), measuring DNA synthesis in proliferating cells. Briefly, cells (5−10×10^3) were seeded in each well of 96 well plates and cultured overnight. […] Finally, 100 μl/well of substrate solution was added and the results were obtained using a microplate reader (Spectra Max PLUS, Molecular Devices) during color development. Multiple readings at various time points were obtained and results in the linear range of the assay were obtained. […]
After varying periods of cell culture (2-6 days), the cell cultures were harvested and cell growth was assessed by cell count and BRdU incorporation using standard protocols.

Chain of MMP12 (P39900 106-470): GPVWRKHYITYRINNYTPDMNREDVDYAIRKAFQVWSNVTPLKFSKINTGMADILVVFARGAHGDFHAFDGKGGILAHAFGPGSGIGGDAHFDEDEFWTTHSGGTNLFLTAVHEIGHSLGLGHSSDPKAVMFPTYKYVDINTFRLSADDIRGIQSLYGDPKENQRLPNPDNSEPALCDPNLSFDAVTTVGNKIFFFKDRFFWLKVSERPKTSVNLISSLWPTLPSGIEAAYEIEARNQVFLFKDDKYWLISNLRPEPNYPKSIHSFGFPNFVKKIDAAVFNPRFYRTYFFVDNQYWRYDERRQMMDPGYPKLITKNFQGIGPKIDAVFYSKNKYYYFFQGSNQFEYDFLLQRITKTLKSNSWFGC

CN1CC2(CC2)C[C@H](C(=O)NO)[C@H]1C(=O)N1CCN(c2ccc(C(F)(F)F)cn2)CC1 [Compound 6]
IC50 (MMP12): 1.95 nM
effect on antiproliferative activity of a suboptimal dose of Herceptin (MCF7 cells): does not enhance
Her-2 sheddase activity (Her-2 sheddase): inactive
effect on antiproliferative activity of a suboptimal dose of Herceptin (BT474 cells): does not enhance
